Laboratory results as given in publication PMC7300657 (EMBO Molecular Medicine, 2020).
Read-outs that look alike come from different tables or passages of the source.

Experiments:
BIKE = BIKE (Homo sapiens, UniProt Q9NSY1); test: biochemical; assay type: binding
GAK = biological target: T1, GAK (Homo sapiens, UniProt O14976); test: biochemical; assay type: binding
T1 sequence (O14976 1-1311): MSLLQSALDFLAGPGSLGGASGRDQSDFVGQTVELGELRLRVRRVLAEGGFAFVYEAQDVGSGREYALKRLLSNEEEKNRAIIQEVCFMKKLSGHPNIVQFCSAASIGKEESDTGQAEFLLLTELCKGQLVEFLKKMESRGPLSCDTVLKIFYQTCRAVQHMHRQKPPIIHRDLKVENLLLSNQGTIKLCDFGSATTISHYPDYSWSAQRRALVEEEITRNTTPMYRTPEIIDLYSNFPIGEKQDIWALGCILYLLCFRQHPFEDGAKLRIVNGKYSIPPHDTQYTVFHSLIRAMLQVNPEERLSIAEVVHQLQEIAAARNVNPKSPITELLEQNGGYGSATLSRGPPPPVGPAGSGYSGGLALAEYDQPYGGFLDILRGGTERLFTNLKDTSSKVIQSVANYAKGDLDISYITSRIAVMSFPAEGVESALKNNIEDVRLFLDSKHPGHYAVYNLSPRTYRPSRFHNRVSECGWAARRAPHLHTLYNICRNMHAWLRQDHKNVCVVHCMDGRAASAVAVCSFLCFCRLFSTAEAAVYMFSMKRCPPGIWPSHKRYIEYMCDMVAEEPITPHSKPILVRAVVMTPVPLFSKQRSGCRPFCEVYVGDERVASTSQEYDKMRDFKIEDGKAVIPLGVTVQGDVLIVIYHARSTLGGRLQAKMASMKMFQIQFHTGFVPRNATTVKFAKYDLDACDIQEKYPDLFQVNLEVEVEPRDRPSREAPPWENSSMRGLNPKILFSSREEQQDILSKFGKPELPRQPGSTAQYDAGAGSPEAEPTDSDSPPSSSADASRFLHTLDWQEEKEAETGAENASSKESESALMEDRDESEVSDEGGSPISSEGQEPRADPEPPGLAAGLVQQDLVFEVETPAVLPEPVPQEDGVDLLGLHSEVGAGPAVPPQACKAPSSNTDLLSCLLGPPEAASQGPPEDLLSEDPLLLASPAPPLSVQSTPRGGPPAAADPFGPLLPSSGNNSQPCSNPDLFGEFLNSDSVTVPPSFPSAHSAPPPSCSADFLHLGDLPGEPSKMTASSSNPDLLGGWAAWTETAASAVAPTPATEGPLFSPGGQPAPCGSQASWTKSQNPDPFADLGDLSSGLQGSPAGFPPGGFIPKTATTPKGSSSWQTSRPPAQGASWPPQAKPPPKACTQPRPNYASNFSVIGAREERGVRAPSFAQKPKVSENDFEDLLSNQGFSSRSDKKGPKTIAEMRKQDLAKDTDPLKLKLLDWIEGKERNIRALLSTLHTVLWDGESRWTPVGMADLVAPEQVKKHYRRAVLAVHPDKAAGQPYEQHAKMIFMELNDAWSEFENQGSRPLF

STK16 = STK16 (Homo sapiens, UniProt O75716); test: biochemical; assay type: binding
Sequence of STK16 (O75716 whole entry): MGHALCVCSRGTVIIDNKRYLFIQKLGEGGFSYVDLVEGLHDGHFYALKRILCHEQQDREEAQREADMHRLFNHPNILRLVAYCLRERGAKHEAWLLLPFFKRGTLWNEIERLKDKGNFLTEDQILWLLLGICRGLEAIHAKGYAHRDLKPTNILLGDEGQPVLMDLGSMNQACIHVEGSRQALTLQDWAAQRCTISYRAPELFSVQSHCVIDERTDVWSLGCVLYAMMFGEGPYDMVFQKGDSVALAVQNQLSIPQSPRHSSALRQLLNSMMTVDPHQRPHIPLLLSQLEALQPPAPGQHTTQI

AAK1 = AAK1 (Homo sapiens, UniProt Q2M2I8); test: biochemical
Sequence of AAK1 (Q2M2I8 whole entry): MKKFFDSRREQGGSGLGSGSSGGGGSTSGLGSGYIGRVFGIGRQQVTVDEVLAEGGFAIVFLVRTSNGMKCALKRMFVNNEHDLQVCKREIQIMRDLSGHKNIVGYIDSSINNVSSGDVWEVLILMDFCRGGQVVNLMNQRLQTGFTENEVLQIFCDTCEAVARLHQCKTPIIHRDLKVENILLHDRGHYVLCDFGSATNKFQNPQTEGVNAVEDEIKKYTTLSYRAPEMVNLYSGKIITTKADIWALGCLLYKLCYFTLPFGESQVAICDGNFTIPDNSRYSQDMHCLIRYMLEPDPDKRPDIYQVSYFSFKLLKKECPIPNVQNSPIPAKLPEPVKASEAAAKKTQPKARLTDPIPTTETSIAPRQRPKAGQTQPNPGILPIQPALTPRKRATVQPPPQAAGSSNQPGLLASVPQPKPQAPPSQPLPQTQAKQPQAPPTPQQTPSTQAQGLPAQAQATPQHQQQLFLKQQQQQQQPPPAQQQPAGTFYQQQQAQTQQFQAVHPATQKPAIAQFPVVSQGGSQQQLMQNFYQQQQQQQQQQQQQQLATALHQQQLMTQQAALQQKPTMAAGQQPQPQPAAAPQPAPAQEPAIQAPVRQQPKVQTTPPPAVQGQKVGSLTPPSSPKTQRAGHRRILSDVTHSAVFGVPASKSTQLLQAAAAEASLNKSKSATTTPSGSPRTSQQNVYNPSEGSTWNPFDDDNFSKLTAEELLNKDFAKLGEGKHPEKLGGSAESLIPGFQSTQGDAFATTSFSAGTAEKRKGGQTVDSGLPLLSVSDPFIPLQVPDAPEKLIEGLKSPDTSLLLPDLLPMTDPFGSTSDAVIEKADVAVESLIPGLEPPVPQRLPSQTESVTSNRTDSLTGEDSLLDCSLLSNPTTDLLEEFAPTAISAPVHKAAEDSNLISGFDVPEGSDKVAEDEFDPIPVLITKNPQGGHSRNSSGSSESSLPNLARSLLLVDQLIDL

[1] = test system: cytokine‐induced JAK/STAT signaling; test: Cytokine-stimulated pSTAT inhibition in human leukocyte subpopulations (flow cytometry); assay type: cell-based; conditions: human CD4+ T cells, CD8+ T cells, NK cells, monocytes; 1 h preincubation, 15 min cytokine stimulation
Experimental: Leukocyte preparation and experimental design were largely performed as previously described (McInnes et al, 2019). Whole blood samples from healthy donors (N = 6) were apheresed, and leukocyte‐enriched fractions were transferred to the company Primity Bio (Fremont, CA, USA). […] Cytokines were used at the following concentrations: IL‐2 (4 ng/ml), IL‐3 (12 ng/ml), IL‐4 (350 pg/ml), IL‐6 (1.5 ng/ml), IL‐10 (12 ng/ml), IL‐15 (850 pg/ml), IL‐21 (200 pg/ml), IFN‐γ (100 pg/ml), G‐CSF (5 ng/ml), and GM‐CSF (5 pg/ml). The choice of cytokine concentrations and incubation conditions was optimized in order to ensure consistent signaling in alternate cell types and pSTAT readouts. After stimulation, cells were fixed, permeabilized, and fluorescence‐barcoded, and multicolor flow cytometry was performed as previously described to quantify STAT phosphorylation in gated leukocyte subpopulations (McInnes et al, 2019). For a given case (stimulation, cell type, and pSTAT combination), the IC50 was determined if there was a consistent response to the stimulus as described in the statistical analysis section. The primary pSTAT observed for each stimulus is reported. […]
IC50 values were determined by analyzing the mean fluorescence intensity (MFI) of cytokine‐stimulated samples in the presence of the designated concentration of compound. […]

SARS‐CoV‐2 [2] = assay type: cell-based; conditions: pretreatment 24 h with 400 and 800 nM, MOI 0.1, 48 h after infection, P < 0.05
[3] = test system: primary human liver spheroids; test: Viability of primary human liver spheroids (intracellular ATP); assay type: cell-based; conditions: up to concentrations approximately eightfold higher than clinical AUC at 4 mg ([…]), n = 10
IL‐6 = conditions: patients with active RA, inadequate response to methotrexate, P < 0.05
SARS‐CoV‐2 [4] = test system: SARS‐CoV‐2
[5] = cited from earlier work
[6] = parameters: method as in Genovese et al, 2019; conditions: RA patients, 10,127 patients-year of exposure, up to 6.9 years; ref Genovese et al, 2019; cited from earlier work
JAK2 = conditions: ref Fridman et al, 2010; cited from earlier work

Sequence of BIKE (Q9NSY1 whole entry): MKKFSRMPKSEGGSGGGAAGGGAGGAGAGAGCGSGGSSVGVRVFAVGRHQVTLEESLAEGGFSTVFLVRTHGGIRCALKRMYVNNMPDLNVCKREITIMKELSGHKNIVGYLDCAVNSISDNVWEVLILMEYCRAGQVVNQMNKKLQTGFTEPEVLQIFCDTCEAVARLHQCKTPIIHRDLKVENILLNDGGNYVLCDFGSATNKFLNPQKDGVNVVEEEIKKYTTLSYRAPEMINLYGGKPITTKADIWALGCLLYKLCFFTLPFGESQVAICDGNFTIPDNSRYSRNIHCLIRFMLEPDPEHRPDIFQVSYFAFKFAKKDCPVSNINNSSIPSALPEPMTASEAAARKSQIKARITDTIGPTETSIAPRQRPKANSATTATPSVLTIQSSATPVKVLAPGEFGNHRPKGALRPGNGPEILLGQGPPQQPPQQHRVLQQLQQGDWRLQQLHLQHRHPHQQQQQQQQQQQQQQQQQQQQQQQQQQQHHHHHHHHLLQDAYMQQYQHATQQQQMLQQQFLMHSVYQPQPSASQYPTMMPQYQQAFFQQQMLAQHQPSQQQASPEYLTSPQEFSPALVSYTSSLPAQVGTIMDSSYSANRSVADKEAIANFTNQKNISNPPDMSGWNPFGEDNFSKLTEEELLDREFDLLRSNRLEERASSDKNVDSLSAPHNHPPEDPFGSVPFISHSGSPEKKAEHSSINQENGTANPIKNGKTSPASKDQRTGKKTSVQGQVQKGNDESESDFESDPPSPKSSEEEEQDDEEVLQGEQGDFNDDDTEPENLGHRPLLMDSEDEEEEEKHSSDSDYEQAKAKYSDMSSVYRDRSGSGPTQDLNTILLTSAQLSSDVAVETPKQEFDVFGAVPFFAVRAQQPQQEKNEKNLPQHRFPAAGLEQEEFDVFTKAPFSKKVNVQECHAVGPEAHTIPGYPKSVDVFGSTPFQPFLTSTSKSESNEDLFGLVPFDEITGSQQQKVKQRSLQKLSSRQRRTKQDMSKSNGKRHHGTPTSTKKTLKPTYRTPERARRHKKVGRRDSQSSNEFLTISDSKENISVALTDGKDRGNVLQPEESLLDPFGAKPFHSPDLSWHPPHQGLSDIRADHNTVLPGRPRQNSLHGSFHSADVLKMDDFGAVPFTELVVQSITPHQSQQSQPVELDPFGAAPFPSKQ

Structure (SMILES)	Kd (BIKE)	Kd (GAK; read-out: GAK Kd)	Kd (STK16)	Kd (AAK1)	signaling of cytokines implicated in COVID-19 infection (IL-2, IL-6, IL-10, IFN-γ, G-CSF), pSTAT inhibition [1]	reduction of viral load (SARS‐CoV‐2 [2])	liver cell injury / spheroid viability [3]	change from baseline in plasma IL-6 at week 12 (IL‐6)	clinical outcome of case series (SARS‐CoV‐2 [4]; 4 mg (Patients A, C, D) or 2 mg (Patient B) once daily oral, 10-12 days)	tolerability (SARS‐CoV‐2 [4]; four patients, 2 or 4 mg once daily oral, 10-12 days)	liver aminotransferases (SARS‐CoV‐2 [4]; four patients, during baricitinib treatment)	time to improvement of liver enzyme elevations (SARS‐CoV‐2 [4]; without interrupting baricitinib treatment)	unbound fraction of free bioavailable drug, AUC ([5]; RA patient sera, baricitinib 2 mg, ref data on file)	half-life ([5]; RA patients, ref Eli Lilly and Company, 2019)	main clearance mechanism ([5]; ref Eli Lilly and Company, 2019)	incidence rate of serious infection [6]	binding affinity for JAK2 (JAK2)	Kd (GAK)
NC(=O)Nc1cc(-c2cccc(F)c2)sc1C(=O)N[C@H]1CCCNC1 [AZD7762]	13 nM	1.4 nM	1900 nM	2.9 nM														
CCS(=O)(=O)N1CC(CC#N)(n2cc(-c3ncnc4[nH]ccc34)cn2)C1 [Baricitinib]					inhibited signaling	30–40%	did not result in liver cell injury	significant reduction	improved lung function, resolution of their illness, and reductions in viral load, plasma IL‐6, ferritin, and CRP levels	well‐tolerated	Transient increases	≤ 72 h	326 nM	approximately 12 h	renal elimination	2.8 /100 patient‐years	5.7 nM	
CC[C@@H]1CN(C(=O)NCC(F)(F)F)C[C@@H]1c1cnc2cnc3[nH]ccc3n12 [Upadacitinib]	11000 nM		9300 nM															2200 nM
